Consider two compounds from publication PMC8837544, “Pharmacological inhibition of MERTK induces in vivo retinal degeneration: a multimodal imaging ocular safety assessment” (Archives of Toxicology, 2022).

Converted amounts (≈) assume the structure as drawn. “And” between values parts separate entries of the source, which are not always exact repeats. Equal entries are not always repeated. Bounds are passed on as bounds.

For data set [1], the target named is T1, Axl (Homo sapiens, UniProt P30530). On the procedure: (§1) Biochemical assays for Mer, Axl, Tyro3 and Flt3 were performed using a Rapidfire LCMS method as previously described (Nissink et al. [2021]). Cellular assays for pMer, pAxl, pTyro3, pFLT3 were performed in transiently transfected Cos-7 (Monkey: African green) cell lines as previously described. The macrophage efferocytosis assay was performed as previously described (Clark et al. [2019]).

Another data set concerns the target Flt3 (Homo sapiens, UniProt P36888). On the procedure:
as §1

The next data set addresses Mer (Homo sapiens, UniProt Q12866). As for the experimental part:
as §1

In a further data set the test system is macrophage efferocytosis. Kind of data set: Macrophage efferocytosis assay. The class given is cell-based.
Another data set can be described thus: LogD7.4. As to conditions: pH 7.4. The class given is physicochemical.
The next data set in a line: Solubility. Format: physicochemical.
The nature of data set [2]: Human plasma protein binding. The class given is in vitro ADME.
Data set [3] in a line: Mouse plasma protein binding. Format: in vitro ADME.
The nature of the next data set: HLM intrinsic clearance. Format: in vitro ADME, human.
The nature of data set [4]: CaCo2 permeability and efflux. The class given is in vitro ADME. (Caco-2 monolayers are a common model of the intestinal barrier.)
The nature of another data set: Mouse pharmacokinetics. Format: in vivo.
The conditions of data set [5]: 200 mg/kg BID, C57BL/6 J mice, 28 days. On the procedure: (§2) All in vivo experimental procedures were conducted in accordance with United Kingdom legislation (Animals (Scientific Procedures) Act, 1986) and were compliant with the ARRIVE guidelines. 6–7-week-old female (20–25 g) C57BL/6 J mice (Charles River Laboratories Ltd, UK) were acclimatized to the facility for 10 days and then randomized to groups based on bodyweight; vehicle control (n = 6, animals 1–6) and MERTK inhibitor treatment (n = 9, animals 7–15). Animals were treated via oral gavage with vehicle control (60% v/v 0.1 M HCl, 20% v/v PEG 400, 20% v/v purified water pH 3.5–4.5) or AZ14145845 (200 mg/kg). All animals were dosed twice daily with a dose volume of 10 mL/kg for 28 days, with the final dose being administered on the morning of Day 29. The dose interval between the first and second dose on each day was 8 h. […] Samples for histopathology were taken from 6 controls (animals 1–6), 8 treated animals (animals 7–11, 13–15) and for electron microscopy from 1 control (animal no. 1) and 3 treated animals (animals 8–10) and for MSI from 3 treated animals (animals 13–15).
A whole blood sample (32 µL) was collected via a tail vein prick into a K2-EDTA treated capillary tube, centrifuged at 1500g for 10 min at 4 °C, and plasma collected using a micropipette (non-EDTA Ref.no. 172292, Vitrex Medical A/S, Denmark). Samples were collected on Day 1 at 30 min, 2-h, 8-h (pre-second dose) and 24-h post the first dose. On days 7, 28, 29 samples were collected at 2-h post the first dose and at 8-h pre the second dose.

Data set [6] can be described thus: Bodyweight and tolerability in 28 day mouse safety study. As to conditions: day 5 onwards, remainder of the study. On the procedure: as §2
Data set [7] is described as follows: Ocular exposure in the rat (melanin binding). The class given is in vivo. Particulars: for eye partition coefficient (Kp): iv infusion 2 μmol/kg/h, 4-h post infusion. On the procedure:
Male pigmented Long Evans and non-pigmented Han Wistar rats were treated via intravenous infusion of AZ14145845 at a dose of 2 μmol/kg/h in a TEG:DMA:H2O (1:1:1) formulation, dose volume 4 mL/kg. At 4-h post the 15-min intravenous infusion, the animals were killed and the eyes extracted and homogenized to determine the concentration of AZ14145845 in the eye.

Data set [8] has as its system retina. Kind of data set: Retinal histopathology (H&E light microscopy) in 28 day mouse safety study. The class given is in vivo, C57BL/6 J mice.
In data set [9] the test system is retina. Particulars: mouse, in vivo. On the procedure: as §2
The nature of data set [10]: MALDI mass spectrometry imaging of whole eye sections (quantitative MSI). Format: in vivo, C57BL/6 J mice. As for the experimental part: as §2
The test system of data set [11] is ARPE19, human retinal epithelial cells. The experiment in a line: Phagocytosis of photoreceptor outer segments (POS) in human retinal cells. The class given is cell-based. As to conditions: 3 μM, 6-h incubation, FITC-labeled POS. As for the experimental part:
ARPE19, human retinal epithelial cells, were cultured in Dulbecco’s modified Eagle’s medium (DMEM/F12, supplemented with 10% fetal bovine serum). All culture materials were purchased from Thermo Fisher Scientific. Cells were seeded at 10,000 cells per well in CellCarrier imaging plates (Perkin Elmer) and cultured for up to 6 weeks to allow for polarization of the cell layer. On the day of treatment cells were washed three times in PBS and then incubated in serum free conditions with FITC-labeled POS at a concentration of 10 POS/cell and either DMSO or 3 μM of AZ14145845 in DMSO. Following incubation for 6 h, cells were washed with PBS to remove non-internalized POS and fixed in 4% PFA. Following staining of nuclei with Hoechst, cells were imaged using a […] ImageExpress Confocal microscope. Each well was imaged at 20 × with 16 images taken per well. Analysis modules were written using the custom module editor of MetaXpress vers 6.5.4.532. Nuclei were segmented and enumerated using the embedded count nuclei module. Individual POS particles were segmented and counted on a per image basis using the same custom module. Data are expressed as fold change in total POS per cell over control. Experiments were carried out a minimum of 3 times.

The target in the next data set is hERG (Homo sapiens, UniProt Q12809). As to conditions: read-out: hERG. (In general: hERG is a cardiac potassium channel; its block is linked to QT prolongation.)
Another data set addresses MERTK (Homo sapiens, UniProt Q12866). Particulars: 1 μM.
Data set [12] addresses T1, Axl. Particulars: 1 μM.
The target of a further data set is MAP4K5 (KHS1) (Homo sapiens, UniProt Q9Y4K4). As to conditions: 1 μM.
Data set [13] has as its system Mer kinase Ba/F3 xenograft. As to conditions: 200 mg/kg, ref McCoull et al. [2021]; cited from earlier work.
Data set [14] concerns retina. Particulars: mouse, cited from earlier work.
The mark [15] stands for this setting: animals 13-15, 200 mg/kg BID 28 days.

T1 sequence (P30530 26-894): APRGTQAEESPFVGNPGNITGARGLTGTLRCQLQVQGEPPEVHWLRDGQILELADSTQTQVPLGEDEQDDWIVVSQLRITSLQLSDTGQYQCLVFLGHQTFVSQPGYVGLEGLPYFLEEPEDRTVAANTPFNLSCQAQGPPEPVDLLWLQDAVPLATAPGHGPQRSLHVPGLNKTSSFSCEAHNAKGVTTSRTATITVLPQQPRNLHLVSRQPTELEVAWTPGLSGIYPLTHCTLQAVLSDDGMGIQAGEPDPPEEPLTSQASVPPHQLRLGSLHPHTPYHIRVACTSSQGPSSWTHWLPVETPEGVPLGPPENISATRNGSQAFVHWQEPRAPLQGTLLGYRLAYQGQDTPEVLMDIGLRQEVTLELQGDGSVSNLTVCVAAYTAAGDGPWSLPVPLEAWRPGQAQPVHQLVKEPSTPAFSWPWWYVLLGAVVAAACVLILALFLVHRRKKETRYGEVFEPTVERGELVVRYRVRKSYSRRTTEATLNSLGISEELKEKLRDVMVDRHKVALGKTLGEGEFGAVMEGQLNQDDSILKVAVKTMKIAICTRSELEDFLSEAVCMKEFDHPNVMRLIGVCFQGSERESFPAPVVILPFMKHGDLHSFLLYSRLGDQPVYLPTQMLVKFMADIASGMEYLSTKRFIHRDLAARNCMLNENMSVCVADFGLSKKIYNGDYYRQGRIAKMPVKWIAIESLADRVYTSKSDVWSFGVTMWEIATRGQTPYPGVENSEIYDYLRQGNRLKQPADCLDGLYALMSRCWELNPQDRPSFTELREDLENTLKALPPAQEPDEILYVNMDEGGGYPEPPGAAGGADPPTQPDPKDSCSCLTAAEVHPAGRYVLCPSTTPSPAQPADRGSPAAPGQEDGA
Chain of Mer (Q12866 21-999): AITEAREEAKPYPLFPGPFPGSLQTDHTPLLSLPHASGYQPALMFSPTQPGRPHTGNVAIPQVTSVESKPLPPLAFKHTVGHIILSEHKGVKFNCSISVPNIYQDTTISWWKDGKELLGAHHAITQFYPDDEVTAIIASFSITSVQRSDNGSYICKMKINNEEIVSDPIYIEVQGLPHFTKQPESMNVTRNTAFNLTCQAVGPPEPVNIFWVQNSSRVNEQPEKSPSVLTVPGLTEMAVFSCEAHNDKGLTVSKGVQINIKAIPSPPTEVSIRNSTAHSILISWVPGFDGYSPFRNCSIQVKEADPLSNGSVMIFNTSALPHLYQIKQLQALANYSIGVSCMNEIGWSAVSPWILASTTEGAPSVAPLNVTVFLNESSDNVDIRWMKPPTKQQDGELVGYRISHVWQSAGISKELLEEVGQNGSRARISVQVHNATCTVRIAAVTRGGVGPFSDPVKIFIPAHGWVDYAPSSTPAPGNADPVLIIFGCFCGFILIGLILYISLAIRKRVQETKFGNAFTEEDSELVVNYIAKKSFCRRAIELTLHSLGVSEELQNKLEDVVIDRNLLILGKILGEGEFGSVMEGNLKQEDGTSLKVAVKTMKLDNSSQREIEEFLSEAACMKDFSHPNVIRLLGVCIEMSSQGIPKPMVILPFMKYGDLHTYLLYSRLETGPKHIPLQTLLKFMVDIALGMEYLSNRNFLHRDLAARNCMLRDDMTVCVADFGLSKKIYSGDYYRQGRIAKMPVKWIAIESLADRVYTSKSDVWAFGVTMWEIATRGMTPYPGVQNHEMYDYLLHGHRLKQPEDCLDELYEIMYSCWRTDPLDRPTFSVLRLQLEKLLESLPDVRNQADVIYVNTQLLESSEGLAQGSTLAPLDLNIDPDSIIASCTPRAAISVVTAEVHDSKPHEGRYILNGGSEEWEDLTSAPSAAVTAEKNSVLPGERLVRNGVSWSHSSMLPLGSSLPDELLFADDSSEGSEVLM
Chain of Flt3 (P36888 27-993): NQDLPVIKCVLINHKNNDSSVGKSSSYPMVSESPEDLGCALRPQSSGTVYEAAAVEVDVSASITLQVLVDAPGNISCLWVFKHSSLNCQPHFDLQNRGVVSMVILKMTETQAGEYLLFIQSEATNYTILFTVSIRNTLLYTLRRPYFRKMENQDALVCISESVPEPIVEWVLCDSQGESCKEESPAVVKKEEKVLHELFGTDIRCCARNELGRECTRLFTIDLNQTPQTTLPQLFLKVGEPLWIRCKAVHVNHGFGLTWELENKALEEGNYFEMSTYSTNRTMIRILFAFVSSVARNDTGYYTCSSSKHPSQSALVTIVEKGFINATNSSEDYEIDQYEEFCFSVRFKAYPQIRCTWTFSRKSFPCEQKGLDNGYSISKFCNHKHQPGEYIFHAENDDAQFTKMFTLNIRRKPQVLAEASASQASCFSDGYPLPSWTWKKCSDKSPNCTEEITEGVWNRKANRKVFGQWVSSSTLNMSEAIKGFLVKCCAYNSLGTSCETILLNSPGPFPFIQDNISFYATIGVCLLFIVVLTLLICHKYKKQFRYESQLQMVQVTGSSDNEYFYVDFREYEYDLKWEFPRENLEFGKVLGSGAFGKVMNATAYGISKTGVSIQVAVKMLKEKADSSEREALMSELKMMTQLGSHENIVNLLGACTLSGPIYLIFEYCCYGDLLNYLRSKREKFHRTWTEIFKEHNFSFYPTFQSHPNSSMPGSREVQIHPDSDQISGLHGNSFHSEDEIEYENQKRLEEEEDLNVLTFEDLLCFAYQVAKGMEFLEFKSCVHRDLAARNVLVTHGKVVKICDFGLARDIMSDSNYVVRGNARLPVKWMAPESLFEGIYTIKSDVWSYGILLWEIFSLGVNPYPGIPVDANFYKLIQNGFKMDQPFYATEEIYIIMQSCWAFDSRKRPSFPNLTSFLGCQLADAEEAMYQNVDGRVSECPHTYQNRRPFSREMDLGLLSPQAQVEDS
Chain of hERG (Q12809 whole entry): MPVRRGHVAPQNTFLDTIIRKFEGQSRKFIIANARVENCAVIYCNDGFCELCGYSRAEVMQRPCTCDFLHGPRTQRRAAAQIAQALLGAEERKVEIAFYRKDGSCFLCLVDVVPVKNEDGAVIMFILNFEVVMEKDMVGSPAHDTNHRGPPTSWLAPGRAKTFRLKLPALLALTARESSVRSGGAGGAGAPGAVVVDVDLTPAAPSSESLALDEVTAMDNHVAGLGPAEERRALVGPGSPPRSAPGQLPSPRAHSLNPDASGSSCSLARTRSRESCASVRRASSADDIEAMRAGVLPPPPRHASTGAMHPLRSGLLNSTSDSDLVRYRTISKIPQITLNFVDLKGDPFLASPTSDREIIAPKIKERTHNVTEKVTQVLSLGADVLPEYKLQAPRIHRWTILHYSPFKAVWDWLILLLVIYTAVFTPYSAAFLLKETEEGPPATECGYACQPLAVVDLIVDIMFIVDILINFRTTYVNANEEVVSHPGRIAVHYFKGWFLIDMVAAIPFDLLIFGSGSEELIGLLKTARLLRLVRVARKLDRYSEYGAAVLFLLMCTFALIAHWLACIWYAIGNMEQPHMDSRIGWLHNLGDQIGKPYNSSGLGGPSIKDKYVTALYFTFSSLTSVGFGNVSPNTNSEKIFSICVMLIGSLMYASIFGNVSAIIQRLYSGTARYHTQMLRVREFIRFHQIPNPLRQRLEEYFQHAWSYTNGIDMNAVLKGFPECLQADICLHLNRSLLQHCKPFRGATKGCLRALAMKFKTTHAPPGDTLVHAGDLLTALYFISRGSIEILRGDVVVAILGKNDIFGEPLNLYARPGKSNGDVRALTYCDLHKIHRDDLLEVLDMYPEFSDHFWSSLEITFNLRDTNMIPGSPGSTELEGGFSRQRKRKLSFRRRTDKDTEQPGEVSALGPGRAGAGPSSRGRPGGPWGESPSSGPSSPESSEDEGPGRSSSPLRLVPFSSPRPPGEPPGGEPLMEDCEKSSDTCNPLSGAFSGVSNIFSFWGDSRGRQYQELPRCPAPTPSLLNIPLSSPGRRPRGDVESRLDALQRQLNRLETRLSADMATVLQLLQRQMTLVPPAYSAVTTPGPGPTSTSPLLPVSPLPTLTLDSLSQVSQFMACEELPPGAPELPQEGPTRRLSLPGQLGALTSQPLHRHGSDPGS
Chain of MAP4K5 (KHS1) (Q9Y4K4 whole entry): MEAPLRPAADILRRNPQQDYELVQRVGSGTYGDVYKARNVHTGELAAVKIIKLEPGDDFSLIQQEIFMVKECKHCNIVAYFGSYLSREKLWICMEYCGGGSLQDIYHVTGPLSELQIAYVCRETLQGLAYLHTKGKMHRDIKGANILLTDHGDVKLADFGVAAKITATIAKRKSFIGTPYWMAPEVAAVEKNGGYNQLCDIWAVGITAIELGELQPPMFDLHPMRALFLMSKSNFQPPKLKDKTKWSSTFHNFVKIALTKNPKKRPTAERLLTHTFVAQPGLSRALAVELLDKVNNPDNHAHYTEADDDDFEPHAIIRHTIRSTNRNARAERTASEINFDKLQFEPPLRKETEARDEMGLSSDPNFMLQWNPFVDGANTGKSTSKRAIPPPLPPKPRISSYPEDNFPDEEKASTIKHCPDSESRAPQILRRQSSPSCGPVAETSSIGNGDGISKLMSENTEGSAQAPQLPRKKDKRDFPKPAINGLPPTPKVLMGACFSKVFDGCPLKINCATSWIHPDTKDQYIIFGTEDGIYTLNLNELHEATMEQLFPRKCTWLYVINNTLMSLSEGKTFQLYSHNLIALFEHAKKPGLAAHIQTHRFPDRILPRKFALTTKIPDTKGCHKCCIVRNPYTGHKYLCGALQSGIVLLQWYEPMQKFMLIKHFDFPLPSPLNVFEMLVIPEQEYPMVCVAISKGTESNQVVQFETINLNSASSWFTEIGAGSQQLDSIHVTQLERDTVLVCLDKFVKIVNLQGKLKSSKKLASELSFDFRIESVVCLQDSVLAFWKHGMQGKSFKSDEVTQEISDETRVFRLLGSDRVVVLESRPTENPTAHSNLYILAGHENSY
Chain of MERTK (Q12866 21-999): as the sequence (Q12866 21-999) above

Turning to `Cc1cc(-c2c(C)nn(C)c2C)cnc1-c1nnc(N(C)Cc2ccc3ncc(-c4ccc(CN(C)C)cc4)n3c2)o1` [AZ14145845], the “Axl enzyme (pIC50)” value on Axl [1] came out at 7.9. For the same compound, the “Axl cell (pIC50)” value on Axl [1] (Cos-7 cell) turned out to be 7.0. Moreover, on Flt3, the “Flt3 enzyme (pIC50)” value is reported as < 4.5/ < 4.5. Also, at Flt3 (Cos-7 cell), the “Flt3 cell (pIC50)” value is recorded as < 4.5/ < 4.5. The “Mer enzyme (pIC50)” value at Mer worked out at 9.0. For the same compound, the “Mer cell (pIC50)” value on Mer (Cos-7 cell) is 7.7 and 7.8. In addition, the “Efferocytosis (pIC50)” value in the data set with macrophage efferocytosis amounted to 7.6. In the data set “LogD7.4”, this compound had a LogD7.4 of 2.9. Further, the Solubility (commonly how much of the substance goes into solution per volume) in “Solubility” came to 938 µM (≈ 527 µg/mL). The “Human PPB (% free)” value in data set [2] worked out at 14 % free. Besides, in data set [3], the “Mouse PPB (% free)” value is 7.6 % free. For the same compound, the “HLM CLint” value in “HLM intrinsic clearance” was determined as 195 µL/min/mg protein. The CaCo2 efflux ratio in data set [4] stood at 10. Further, in the data set “Mouse pharmacokinetics” (mouse), the bioavailability (in general, the share of a dose that reaches the circulation, judged against a reference dose that is usually intravenous) was determined as 15%; the clearance (as a rule, a measure of how efficiently the substance is removed, as volume per time) is given as 44 mL/min/kg; the “volume of distribution at steady state” value came out at 3.7 L/kg. The “dose dependence of Cmax and AUC” value in the data set “Mouse pharmacokinetics” (up to 200 mg/kg) is on record as “Dose linear increase”. In data set [5], the accumulation in plasma entry is listed as “no accumulation was observed”, the “average free cover over MERTK Cos-7 cell IC50 at Cmax” value was 90 fold and the “average free cover over MERTK Cos-7 cell IC50 at Cmin” value turned out to be 21 fold. In addition, in [6], the “weight gain above baseline” value was 3–6%. Moreover, the “difference in eye Kp, pigmented vs non-pigmented rats” value in data set [7] (assumed consequence of melanin binding) is “~ ten-fold”. In data set [7] (non-pigmented Han Wistar rat), the “eye partition coefficient (Kp)” value came to 2.5. The “eye partition coefficient (Kp)” value in data set [7] (pigmented Long Evans rat) worked out at 19. For the same compound, the “Total of any retinal degeneration/atrophy (of number examined)” value with retina [8] (200 mg/kg BID, 28 days, one eye per mouse) is 4 of 8. Besides, in the data set on retina [8] (animal no. 10, lesion midway between optic nerve and peripheral limit), the “length of the retina affected by focal lesion” value was “approximately 25%”. Besides, the “extent of retina affected” value in the data set on retina [8] (animal no. 14, most severe microscopic changes) is “entire length of retina”. Further, the “length of the retina affected by focal lesions” value in the data set on retina [8] (animal numbers 8 and 9, lesions towards the periphery of the retina) is listed as “approximately 20%”. Also, in the data set with retina [8] (n = 8 treated mice, 200 mg/kg BID, 28 days, one eye per mouse, 200 mg/kg), the “Number of animals with no H&E findings” value was “four of the eight and 4”. The “Moderate retinal degeneration/atrophy (number of animals)” value in the data set with retina [8] (n = 8 treated mice, diffuse distribution, animal 14) came to 1 with diffuse distribution. Besides, the “Minimal retinal degeneration/atrophy (number of animals)” value in the data set on retina [8] (n = 8 treated mice, focal distribution, animals 8, 9, 10) stood at 3 with focal distribution. For the same compound, the “ultra-structural findings by TEM” value in the data set with retina [9] was “ultra-structural changes at the interface between the POS and the RPE”. In addition, in data set [10] (animal no. 14 compared to animals no. 13 and 15), the “A2E (RPE marker) in the posterior part of the eye by MSI” value was “dramatic decrease”. Further, in [10] (setting [15]), the “Total concentration in the anterior region of the eye (QMSI)” value is ~ 11 µM, the “Total concentration in the posterior region of the eye (QMSI)” value is recorded as ~ 9 µM and the “Total concentration in the whole eye (QMSI)” value was ~ 3 µM. Besides, in data set [10] (whole eye sections, 20 µm spatial resolution), the “ocular distribution by MSI” value is “largely localized in the pigmented retinal tissues of the RPE and choroid layers”. Also, the “drop in the number of internalized POS” value in data set [11] is around 60%. On hERG, the IC50 worked out at 5.7 µM. The “inhibition of MERTK in kinome profiling” value against MERTK is on record as above 90%. Further, on Axl [12], the “inhibition of AXL in kinome profiling” value is listed as above 90%. Moreover, the “inhibition of MAP4K5 (KHS1) in kinome profiling” value at MAP4K5 (KHS1) was above 75%. Also, the “efficacy in xenograft tumor model” value in [13] is on record as “showed efficacy”.

In the case of `CCCCNc1ncc2c(-c3ccc(F)cc3)nn(CC3CCC(N)CC3)c2n1` (stereo not shown) [UNC-569], in the data set with retina [14] (in vivo), the “electron microscopic evaluation of the retina” value is reported as “accumulation of membrane-bound multi-lamellated bodies in the RPE cells” and the “microscopic examination of H&E-stained tissue sections of the eye” value is “No changes were detected”. The “duration of inhibition of MERTK phosphorylation in retinal tissue” value in the data set with retina [14] (post oral administration, ref Sayama et al. [2018]) is “up to 17 h”.
